{
  "source": "patent US20060111335A1",
  "about": "“Photoactivated anti-viral and anti-cancer agent” (priority 2002, published 2006)",
  "key": {"M109 cells": {"test_system": "M109 cells", "assay": "Phototoxicity to M109 tumor cells, MTT assay", "format": "cell-based, mouse", "settings": "dark, zero time point", "procedure": "Photolysis with Tumor Cells.\nProcedures for cell maintenance, cell plating, drug incubation, photolysis and MTT assay are all same as that used for the KB cell lines. A small amount of dark toxicity was observed (about 15%). A considerable amount of killing occurs with light alone after 30 and 40 minutes of irradiation (FIG. 10)."}, "SINV": {"test_system": "SINV", "assay": "Photoinactivation of SINV, virus infectivity", "format": "cell-based, Sindbis virus", "procedure": "General. The quantity of DNA was determined by the Burton assay (Burton, Biochem. J., 62:315-322 (1956)), and its rhodium content was quantitated using flame atomic absorption spectroscopy (AA). The equilibrium constant for interaction between DPPZPHEN and CT-DNA in the dark was calculated from UV-Vis absorption titration measurements at 380 nm (Wolfe et al., Biochem., 26:6392-6396 (1987); Schemel et al., Biopolymers, 10:465-480 (1971)). Cell viability was determined using the MTT assay (Denizot et al., J. Immunol. Methods, 89:271-277 (1986)). SINV was purified on sucrose gradients as previously described (Owen et al., J. Virol., 70:2757-2763 (1996)). The titer was generally 7-8 log10 pfu/mL at the beginning of each experiment.\nPhotolysis with SINV. DPPZPHEN/SINV solutions were prepared by adding a 0.3 mL aliquot of a 600 μM DPPZPHEN stock solution in PBS to 3 mL of purified virus at a concentration of 7-8 log10 pfu/mL and bringing the total volume to 4 mL. The DPPZPHEN/SINV solutions were incubated for 2 hours prior to irradiation, following which 3 mL of the […] 100 μL were withdrawn over time and analyzed for virus infectivity. The inactivation rate constant was calculated using simple hit theory (Hiatt, Bacteriol. Rev., 28:150-163 (1964); Houghtaling et al., Photochem. Photobiol., 71:20-28 (2000)). For the studies measuring infectivity of genome RNA, a 6.9 μL aliquot of 0.623 M DPPZPHEN stock solution in DMSO was added to a 100 μL of TE12 wild type […] solution (10 log10 pfu/mL) to obtain a 40 mM DPPZPHEN/virus solution. Aliquots of 50 μL were placed into 250 μL inserts, incubated for 2 hours, and either kept in the dark or irradiated for 60 minutes with light >330 nm. At the completion of the experiment all the samples were diluted with 6 mL 1×PBS buffer and precipitated for 2 hours at 4° C. with 10% PEG+NaCl (200 mM). The PEG precipitated virus was centrifuged at 4° C. for 30 minutes at 14,000 rpm, and the resulting pellet re-suspended in 200 μL of 1×PBS buffer and extracted with equal volumes of phenol and chloroform. The virion RNA was precipitated with ethanol, re-suspended in 100 μL of 1×PBS, and electroporated into about 2×10^7 baby hamster kidney (BHK) cells using 0.2-cm-gap cuvettes. The electroporation utilized 200 Ohms, 1.5 kV, and 25 μF. The cells were incubated at 37° C. for 12 hours in MEM supplemented with 10% fetal calf serum and the viral supernatants were harvested and assayed for the presence of infectious virus by plaque assay."}, "SINV genomic RNA": {"test_system": "SINV genomic RNA", "assay": "Infectivity of genome RNA from treated SINV transfected into BHK cells, plaque assay", "format": "cell-based, Sindbis virus", "settings": "irradiated 60 minutes, >330 nm", "procedure": "Photolysis with SINV. DPPZPHEN/SINV solutions were prepared by adding a 0.3 mL aliquot of a 600 μM DPPZPHEN stock solution in PBS to 3 mL of purified virus at a concentration of 7-8 log10 pfu/mL and bringing the total volume to 4 mL. The DPPZPHEN/SINV solutions were incubated for 2 hours prior to irradiation, following which 3 mL of the solution was irradiated in quartz cuvettes with 355 nm light under a constant stream of nitrogen with stirring Aliquots of 100 μL were withdrawn over time and analyzed for virus infectivity. The inactivation rate constant was calculated using simple hit theory (Hiatt, Bacteriol. Rev., 28:150-163 (1964); Houghtaling et al., Photochem. Photobiol., 71:20-28 (2000)). For the studies measuring infectivity of genome RNA, a 6.9 μL aliquot of 0.623 M DPPZPHEN stock solution in DMSO was added to a 100 μL of TE12 wild type […] solution (10 log10 pfu/mL) to obtain a 40 mM DPPZPHEN/virus solution. Aliquots of 50 μL were placed into 250 μL inserts, incubated for 2 hours, and either kept in the dark or irradiated for 60 minutes with light >330 nm. At the completion of the experiment all the samples were diluted with 6 mL 1×PBS buffer and precipitated for 2 hours at 4° C. with 10% PEG+NaCl (200 mM). […]"}, "cell membrane": {"test_system": "cell membrane", "assay": "Cell uptake / passage through the cell membrane", "procedure": "OCTBP uptake by KB cells. 11 mg of OCTBP was dissolved in 40 mL of PBS buffer. The solution was vortex stirred for 5 minutes to completely dissolve the solid. The solution was sterile filtered through a 0.2μ nylon syringe filter. The concentration of the solution was determined by measuring the UV absorption at 353 nm (ε353nm=1565 M^−1cm^−1).\nOnce the cells were 75% confluent media was decanted from the flasks and 8 mL of drug solutions were added to three flasks and 8 mL of PBS buffer solution was added to the control flask. The flasks were incubated at 37° C. for 15, 30 and 45 minutes. Control flask was incubated for 45 minutes. When the flasks were removed, they were washed with 6×10 mL of PBS buffer solution. All the liquid was carefully decanted from the flasks. 1 mL of lysing buffer (1% triton X-100) was added to each of the four flasks. The walls of the flasks were rinsed using disposable pipettes. Once all the contents of the flasks were placed into a 1.5 mL disposable centrifuge tubes (each flask yielded ˜1.2 mL), the tubes were centrifuged at 6000 rpm and at 4° C. for 30 minutes on the Fisher Model 59V high-speed centrifuge. BCA Assay was done to establish the amount of cells in each flask.\nRh content of each flask was determined using an inductively coupled plasma (ICP) instrument (AtomScan16, Thermo Elemental, Franklin, Mass.). From each centrifuge tube 1 mL was pipetted and 370 μL of concentrated HCl was added to form a 10% solution. The samples were heated in a hot water bath at 70° C. for 30 minutes. The samples were centrifuged again and the supernatant liquid was diluted to 8 mL by adding nano-pure water. The samples were analyzed for Rh content by ICP."}},
  "data": [
    {"smiles": "[Cl-].[Cl][Rh+]12([Cl])([N]3C=CC=c4ccc5c(c43)[N]1C=CC=5)[N]1C=CC=c3c1c1c(c4nc5ccccc5nc34)=CC=C[N]12", "note": "[DPPZPHEN, cis-dichloro(dipyrido[3,2a-2′3′c]phenazine)(1,10-phenantroline) rhodium(III) chloride]", "values": [
      {"measurement": "cell toxicity in the absence of light", "setting": "M109 cells", "value": "no appreciable degree of cell toxicity"},
      {"measurement": "inactivation rate constant k (simple hit theory)", "setting": "SINV; 45 μM, 355 nm irradiation", "value": "2.4×10^−19 photons^−1"},
      {"measurement": "reduction in viral titer", "setting": "SINV; 45 μM, 355 nm irradiation", "value": 6, "unit": "log"},
      {"measurement": "effect of the metal complex on the virus in the dark", "setting": "SINV; dark", "value": "unaffected"},
      {"measurement": "rate of photoinactivation under oxygen versus nitrogen", "setting": "SINV; oxygen or nitrogen", "value": "the same under either oxygen or nitrogen"},
      {"measurement": "plaque formation in cells that received RNA from virus irradiated with compound", "setting": "SINV genomic RNA", "value": "no plaque formation"},
      {"measurement": "ability to pass through the cell membrane", "setting": "cell membrane", "value": "able to pass through the cell membrane"}
    ]}
  ]
}
